The target in this assay is T1, récepteur vasculaire de l'angiotensine II (Oryctolagus cuniculus, UniProt P34976).
T1 construct: réponse contractile induite par l'angiotensine II dans des anneaux isolés d'aorte de lapin; from tissue; host or cells: isolated rabbit aortic rings
T1 sequence (P34976 1-359): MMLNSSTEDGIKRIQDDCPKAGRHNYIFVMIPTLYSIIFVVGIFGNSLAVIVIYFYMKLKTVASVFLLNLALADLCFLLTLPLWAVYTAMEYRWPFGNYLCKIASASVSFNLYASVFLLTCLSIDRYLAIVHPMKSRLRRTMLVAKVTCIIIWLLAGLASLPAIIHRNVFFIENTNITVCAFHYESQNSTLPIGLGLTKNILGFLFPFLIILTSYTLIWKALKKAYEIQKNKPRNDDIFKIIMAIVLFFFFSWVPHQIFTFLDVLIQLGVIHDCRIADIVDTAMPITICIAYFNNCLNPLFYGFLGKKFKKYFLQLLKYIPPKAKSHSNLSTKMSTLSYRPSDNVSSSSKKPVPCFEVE
The experiment in a line: Antagonism of the angiotensin II-induced contractile response in isolated rabbit aortic rings. The note with it: contraction by angiotensine II 3.10⁻⁹ M, test product preincubated 15 minutes, 37°C. On the set-up: species or system lapin. As to the method:
L'activité des composés selon l'invention comme antagonistes du récepteur vasculaire de l'angiotensine II a été évaluée par leur efficacité à antagoniser la réponse contractile induite par l'angiotensine II dans des anneaux isolés d'aorte de lapin. Les anneaux sont suspendus dans un bain de Krebs-Henseleit maintenu à 37°C et aéré par un mélange O₂/CO₂ (95/5 , v/v) puis étirés à une tension de repos de 2 g. Après une heure de repos, on provoque une contraction par l'angiotensine II (3.10⁻⁹ M) en présence du produit à tester préincubé pendant 15 minutes. La concentration (exprimée en nanomole) de produit à tester produisant une inhibition de 50 % de la réponse contractile (IC₅₀) est calculée à partir de la courbe concentration-réponse . Les résultats obtenus avec un certain nombre de composés selon l'invention sont regroupés dans le tableau VIII.

The structures appear in SMILES notation.

Usually IC50 stands for the concentration that gives 50% inhibition. Low readings indicate higher potency, high ones lower potency. `CCCCc1ncc(CNc2ccccc2C(=O)O)n1Cc1ccc(C(=O)NS(=O)(=O)c2ccccc2N=[N+]=[N-])cc1` [compound 228] returned an IC50 of 2 nM.
The compound `CCCCc1ncc(CNc2ccccc2C(=O)O)n1Cc1ccc(C(=O)OCC)cc1` [compound 174] had an IC50 of 80 nM.
In the case of `CCCCc1nc(Cl)c(CNc2ccccc2-c2nnn[nH]2)n1Cc1ccc(C(=O)O)cc1` [compound 52] it was 40.2 nM; in that of `CCCCc1nc(Cl)c(CNc2ccccc2C(=O)O)n1Cc1ccc(C(=O)O)cc1` [compound 50], 5.7 nM; in that of `CCCCc1nc(I)c(CNc2ccccc2C(=O)O)n1Cc1ccc(C(=O)O)cc1` [compound 44], 5.3 nM.
In the case of `CCCCc1nc(Cl)c(CNc2c(C(=O)O)cc(OC)c(OC)c2OC)n1Cc1ccc(C(=O)O)cc1` [compound 40] it was 57.6 nM; in that of `CCCCc1ncc(CNc2cc(N=[N+]=[N-])ccc2C(=O)O)n1Cc1ccc(C(=O)O)cc1` [compound 226], 6 nM.
In the case of `CCCCc1nc(Cl)c(CNc2ccccc2C(=O)O)n1Cc1ccc(C(=O)O)cc1Cl` [compound 41], the IC50 amounted to 5.1 nM.
Next, `CCCCc1ncc(CNc2ccccc2C(=O)O)n1Cc1ccc(C(=O)NS(=O)(=O)c2ccccc2)cc1` [compound 203]: 4.4 nM.
The compound `CCCCc1ncc(CNc2ccccc2C(=O)Oc2ccccc2)n1Cc1ccc(C(=O)O)cc1` [compound 157] registered an IC50 of 54 nM.
The compound `CCCCc1ncc(CNc2ccccc2C(=O)OCCC(C)C)n1Cc1ccc(C(=O)O)cc1` [compound 161] had a half-maximal inhibitory concentration (IC50) of 64 nM.
`CCCCc1nc(Cl)c(CNc2cc(Cl)ccc2C(=O)O)n1Cc1ccc(C(=O)O)cc1` [compound 48] had an IC50 of 5.3 nM.
For `CCCCc1nc(Cl)c(CNc2cc([N+](=O)[O-])ccc2C(=O)O)n1Cc1ccc(C(=O)O)cc1` [compound 46], 10.5 nM corresponded to half-maximal inhibition (IC50).
`CCCCc1ncc(CNc2ccccc2C(=O)OCC(=O)OCC)n1Cc1ccc(C(=O)O)cc1` [compound 141] had an IC50 of 10 nM.
Next, `CCCc1ncc(CNc2cc([N+](=O)[O-])ccc2C(=O)O)n1Cc1ccc(C(=O)O)cc1` [compound 212]: 46 nM; `CCCCc1ncc(CNc2cc([N+](=O)[O-])ccc2C(=O)O)n1Cc1ccc(C(=O)O)cc1` [compound 35]: 1.2 nM; `CCCCc1nc(Cl)c(CN(C(C)=O)c2ccccc2C(=O)O)n1Cc1ccc(C(=O)O)cc1` [compound 55]: 69.1 nM.
Compound `CCCCc1ncc(CNc2ccccc2C(=O)O)n1Cc1ccc(C(=O)NS(=O)(=O)c2ccc(Cl)cc2)cc1` [compound 202] returned an IC50 of 14.7 nM.
Next, `CCCCc1nc(C(F)(F)F)c(CNc2ccccc2C(=O)O)n1Cc1ccc(C(=O)O)cc1` [compound 43]: 6.3 nM; `CCCCc1ncc(CNc2ccccc2C(=O)O)n1Cc1ccc(C(=O)OCC2CC2)cc1` [compound 178]: 67 nM; `CCCCc1ncc(CNc2ccccc2C(=O)OCC(=O)N(CCC)CCC)n1Cc1ccc(C(=O)OCC(=O)N(CCC)CCC)cc1` [compound 181]: 80 nM.
In the case of `CCCCc1ncc(CNc2ccccc2C(=O)OCC(C)C)n1Cc1ccc(C(=O)O)cc1` [compound 164] it was 40 nM.
In the case of `CCCCCOC(=O)c1ccccc1NCc1cnc(CCCC)n1Cc1ccc(C(=O)O)cc1` [compound 170] it was 80 nM.
In turn, `CCCCc1nc(Cl)c(Cn2c(C(=O)O)cc3ccccc32)n1Cc1ccc(C(=O)O)cc1` [compound 34] registered an IC50 of 8.4 nM.
Next, `CCCCCC(=O)OCOC(=O)c1ccccc1NCc1cnc(CCCC)n1Cc1ccc(C(=O)O)cc1` [compound 148]: 12 nM; `CCCCc1ncc(CNc2ccccc2C(=O)O)n1Cc1ccc(C(=O)NS(=O)(=O)c2ccccc2Cl)cc1` [compound 211]: 0.8 nM; `CCCCc1nc(Cl)c(CNc2ccccc2C(=O)O)n1Cc1ccc(-c2nnn[nH]2)cc1` [compound 51]: 10.8 nM.
Next, `CCCCc1nc(Cl)c(CNc2ccc(Cl)cc2C(=O)O)n1Cc1ccc(C(=O)O)cc1` [compound 49]: 13.2 nM; `CCCc1nc(Cl)c(CNc2ccccc2C(=O)O)n1Cc1ccc(C(=O)O)cc1` [compound 42]: 5.1 nM.
Next, `CCCCc1ncc(CNc2ccccc2C(=O)OCC(=O)N(CCC)CCC)n1Cc1ccc(C(=O)O)cc1` [compound 134]: 35 nM; `CCCCc1nc(SC)c(CNc2ccccc2C(=O)O)n1Cc1ccc(C(=O)O)cc1` [compound 198]: 4.6 nM; `CCCCc1ncc(CNc2ccccc2C(=O)OCC2CC2)n1Cc1ccc(C(=O)O)cc1` [compound 163]: 50 nM.
In turn, `CCCCc1ncc(CNc2ccccc2C(=O)O)n1Cc1ccc(C(=O)NS(=O)(=O)c2ccccc2C)cc1` [compound 67] gave an IC50 of 1.5 nM.
For `CCCCNC(=O)c1ccccc1NCc1cnc(CCCC)n1Cc1ccc(C(=O)O)cc1` [compound 210], the 50% inhibitory concentration (IC50) was 84 nM.
Next, `CCCCc1ncc(CNc2ccccc2C(=O)OCC(=O)N(CC)CC)n1Cc1ccc(C(=O)OC)cc1` [compound 76]: 90 nM.
In the case of `CCCCc1nc(Cl)c(CNc2c(Cl)cc(Cl)cc2C(=O)O)n1Cc1ccc(C(=O)O)cc1` [compound 39] it was 106 nM; in that of `CCCCc1ncc(CNc2ccccc2C(=O)OCOC(=O)CCC)n1Cc1ccc(C(=O)O)cc1` [compound 149], 5 nM; in that of `CCCCc1ncc(CNc2ccccc2C(=O)OCC2COC(C)(C)O2)n1Cc1ccc(C(=O)O)cc1` (centres unmarked) [exemple 26, acide 2-[[[2-butyl-1-[(4-carboxyphényl)méthyl]-1H-imidazol-5-yl]méthyl]amino]-benzoïque, 2,2-diméthyl-1,3-dioxolane-4-yl-méthyl ester], 100 nM.
`CCCCc1ncc(CNc2ccccc2C(=O)OCC(=O)N(CC)CC)n1Cc1ccc(C(=O)OCC(=O)N(CC)CC)cc1` [exemple 68, acide 2-[[[2-butyl-1-[(4-((((diéthylamino)carbonyl)méthoxy)carbonyl)phényl)méthyl]-1H-imidazol-5-yl]méthyl]amino]-benzoïque, ((diéthylamino)carbonyl)méthyl ester]: inhibition was half-maximal at 30 nM (IC50).
The compound `CCCCc1ncc(CNc2ccccc2C(=O)OCOC(=O)CCC)n1Cc1ccc(C(=O)NS(=O)(=O)c2ccccc2C)cc1` [compound 187] gave a half-inhibitory concentration (IC50) of 7 nM.
Next, `CCCCc1ncc(CNc2ccccc2C(=O)O)n1Cc1ccc(C(=O)NS(=O)(=O)c2cccc(Cl)c2)cc1` [compound 201]: 10 nM; `CCCCc1ncc(CNc2ccccc2C(N)=O)n1Cc1ccc(C(=O)O)cc1` [compound 209]: 70 nM; `CCCCOC(=O)c1ccccc1NCc1cnc(CCCC)n1Cc1ccc(C(=O)O)cc1` [compound 166]: 15 nM.
Next, `CCCCc1ncc(Cn2c(C(=O)O)cc3ccccc32)n1Cc1ccc(C(=O)O)cc1` [compound 33]: 7.1 nM.
In the case of `CCCCc1ncc(CNc2ccccc2C(=O)OCC(=O)CC)n1Cc1ccc(C(=O)O)cc1` [compound 155] it was 8.7 nM; in that of `CCCCc1ncc(CNc2ccccc2C(=O)OCCOC)n1Cc1ccc(C(=O)O)cc1` [compound 158], 75 nM; in that of `CCCCc1ncc(CNc2ccccc2C(=O)O)n1Cc1ccc(C(=O)NS(C)(=O)=O)cc1` [compound 205], 5.5 nM.
`CCCCc1ncc(CNc2ccccc2C(=O)OCC(O)CO)n1Cc1ccc(C(=O)O)cc1` (centres unmarked) [exemple 28, acide 2-[[[2-butyl-1-[(4-carboxyphényl)méthyl]-1H-imidazol-5-yl]méthyl]amino]-benzoïque, 2,3-dihydroxy-propyl ester] came in with a 50% inhibitory concentration (IC50) of 80 nM.
Next, `CCCCc1ncc(CNc2ccccc2C(=O)OCCc2ccccc2)n1Cc1ccc(C(=O)O)cc1` [compound 156]: 82 nM; `CCCCc1nc(Cl)c(CNc2cc3ccccc3cc2C(=O)O)n1Cc1ccc(C(=O)O)cc1` [compound 47]: 71.3 nM; `CCCCc1ncc(CNc2ccccc2C(=O)O)n1Cc1ccc(C(=O)NS(=O)(=O)c2ccc(OC)cc2)cc1` [compound 204]: 9.5 nM.
As to `CCCc1ncc(CNc2ccccc2C(=O)O)n1Cc1ccc(C(=O)O)cc1` [compound 36], half-maximal inhibition (IC50) was put at 7 nM.
`CCCCc1ncc(CNc2ccccc2C(=O)O)n1Cc1ccc(C(=O)O)cc1` [exemple 32, acide 2-[[[2-butyl-1-[(4-carboxyphényl)méthyl]-1H-imidazol-5-yl]méthyl]amino]-benzoïque]: the IC50 was determined as 3.6 nM.
Next, `CCCCc1nc(Cl)c(CNc2ccccc2C(=O)O)n1Cc1ccc(C(=O)NS(=O)(=O)c2ccccc2C)cc1` [compound 66]: 8.8 nM.
Compound `CCCCc1nc(Cl)c(CNc2ccc(C)cc2C(=O)O)n1Cc1ccc(C(=O)O)cc1` [compound 45] registered an IC50 of 6.7 nM.
In the case of `CCCCc1ncc(CNc2ccccc2C(=O)OC(C)OC(=O)C2CCCCC2)n1Cc1ccc(C(=O)O)cc1` (centres unmarked) [compound 145] it was 40 nM.
